PMC11845477, “Exploring the principles behind antibiotics with limited resistance” (Nature Communications, 2025)

Experiments:
[1] = test system: E. coli ATCC 25922 (SEN) and E. coli NCTC13846 (MDR); test: Adaptive laboratory evolution (ALE), relative MIC of evolved lines; format: cell-based, Escherichia coli; conditions: for Relative MIC (log10): EC-SEN (Escherichia coli ATCC 25922)
From the text: (§1) Using the same set of bacterial strains, we initiated adaptive laboratory evolution with the aim to maximize the level of antibiotic resistance in the populations achieved during a longer, but fixed time period.
(§2) An established protocol for adaptive laboratory evolution[46],[73] was followed to propagate populations with the highest resistance levels. Starting with an antibiotic concentration that caused approximately 50% growth inhibition, ten parallel populations for each antibiotic-ancestor strain combination were grown for 72 hours at 37 °C with continuous shaking (300 RPM). MHB broth medium was used unless stated otherwise. After each incubation, 20 µl of each culture was transferred to four new wells containing fresh medium with increasing antibiotic concentrations (0.5×, 1×, 1.5×, and 2.5× the previous concentration) in a chessboard layout to monitor potential cross-contamination. Growth was monitored by measuring OD600 using a Biotek Synergy 2 microplate reader, and only populations grown in the highest drug concentration with an OD600 > 0.2 were transferred further.
(§3) A robotic liquid handling system was used to automatically prepare a 11 to 16-step serial dilution in 384-well microtiter plates (Greiner). A final concentration of 5 × 10^5 bacterial cells per mL were inoculated into each well containing 60 µL MHB medium. Bacterial cultures were incubated at 37 °C with continuous shaking (Infors shaker, 900 rpm with 3 mm throw) for 18 hours (2 replicates from each). Cell growth was monitored by measuring the optical density (OD600 values, using Biotek Synergy microplate reader). MIC was defined as the antibiotic concentration of complete growth inhibition (i.e., OD600 < 0.05). Relative MIC was calculated as follows:1 relativeMIC=MICevolved/MICancestor […]
(§4) Supplementary Figure 4. Resistance levels following adaptive laboratory evolution across bacterial strains. The level of resistance was measured as the fold change in relative MIC between evolved and ancestral strains after ~60 days of adaptive laboratory evolution. Data are grouped by bacterial strain (A. baumannii (AB), E. coli (EC), K. pneumoniae (KP), and P. aeruginosa (PA)) and categorized as either multidrug-resistant (MDR) or sensitive (SEN). Each data point represents a laboratory evolved line, and boxplots show the median, first and third quartiles, with whiskers indicating the 5th and 95th percentiles.
(§5) Statistical analysis was performed using two-sided Dunn’s post-hoc test with Benjamini-Hochberg correction for multiple comparisons (****/ ***/ **/ * indicates p < 0.0001/ 0.001/ 0.01/ 0.05). For detailed information on antibiotic and bacterial species, see Supplementary Table 1. For mode of action groups, refer to Table 1. Source data are provided as a Source Data file.
(1 picture or pasted object on this page, not shown here)

[2] = test system: K. pneumoniae ATCC 10031 (SEN) and K. pneumoniae ATCC 700603 (MDR); test: as above; format: cell-based, Klebsiella pneumoniae; conditions: for Relative MIC (log10): KP-SEN (Klebsiella pneumoniae ATCC 10031)
From the text: as §1, §2, §3, §4, §5

[3] = evolved line 8 adapted to the named antibiotic
[4] = evolved line 9 adapted to the named antibiotic

`C[C@H]1c2cccc(O)c2C(=O)C2=C(O)[C@]3(O)C(=O)C(C(N)=O)=C(O)[C@@H](N(C)C)[C@@H]3[C@@H](O)[C@@H]21` [Doxycycline] was tested, and the “Relative MIC” value ([1]; EC-SEN (ATCC 25922), evolved line 1, MIC of evolved line / MIC of ancestor) was 32, the “Relative MIC” value ([1]; EC-SEN (ATCC 25922), evolved line 2, MIC of evolved line / MIC of ancestor) was 16 and the “Relative MIC” value ([1]; EC-SEN (ATCC 25922), evolved line 3, MIC of evolved line / MIC of ancestor) was 32. The “Relative MIC” value ([1]; EC-SEN (ATCC 25922), evolved line 4, MIC of evolved line / MIC of ancestor) was 128, the “Relative MIC” value ([1]; EC-SEN (ATCC 25922), evolved line 6, MIC of evolved line / MIC of ancestor) was 8 and the “Relative MIC” value ([1]; EC-SEN (ATCC 25922), evolved line 7, MIC of evolved line / MIC of ancestor) was 16. The “Relative MIC” value ([1]; EC-SEN (ATCC 25922), evolved line 8, MIC of evolved line / MIC of ancestor) was 32, the “Relative MIC” value ([1]; EC-SEN (ATCC 25922), evolved line 9, MIC of evolved line / MIC of ancestor) was 16 and the “Relative MIC” value ([1]; EC-SEN (ATCC 25922), evolved line 10, MIC of evolved line / MIC of ancestor) was 16. For the same compound, the “Relative MIC (log10)” value ([1]; evolved line 1 adapted to the named antibiotic) was 1.505, the “Relative MIC (log10)” value ([1]; evolved line 2 adapted to the named antibiotic) was 1.204 and the “Relative MIC (log10)” value ([1]; evolved line 3 adapted to the named antibiotic) was 1.505. The “Relative MIC (log10)” value [1, 3] was 1.505, the “Relative MIC (log10)” value [1, 4] was 1.204 and the “Relative MIC” value ([1]; Escherichia coli ATCC 25922 (EC-SEN), evolved line 1) was 32. For the same compound, the “Relative MIC” value ([1]; Escherichia coli ATCC 25922 (EC-SEN), evolved line 2) was 16, the “Relative MIC” value ([1]; Escherichia coli ATCC 25922 (EC-SEN), evolved line 3) was 32 and the “Relative MIC” value ([1]; Escherichia coli ATCC 25922 (EC-SEN), evolved line 4) was 128. The “Relative MIC” value ([1]; Escherichia coli ATCC 25922 (EC-SEN), evolved line 6) was 8, the “Relative MIC” value ([1]; Escherichia coli ATCC 25922 (EC-SEN), evolved line 7) was 16 and the “Relative MIC” value ([1]; Escherichia coli ATCC 25922 (EC-SEN), evolved line 8) was 32. For the same compound, the “Relative MIC” value ([1]; Escherichia coli ATCC 25922 (EC-SEN), evolved line 9) was 16, the “Relative MIC” value ([1]; Escherichia coli ATCC 25922 (EC-SEN), evolved line 10) was 16 and the “Relative MIC” value ([2]; KP-SEN (ATCC 10031), evolved line 1, MIC of evolved line / MIC of ancestor) was 32. The “Relative MIC” value ([2]; KP-SEN (ATCC 10031), evolved line 2, MIC of evolved line / MIC of ancestor) was 64, the “Relative MIC” value ([2]; KP-SEN (ATCC 10031), evolved line 3, MIC of evolved line / MIC of ancestor) was 32 and the “Relative MIC” value ([2]; KP-SEN (ATCC 10031), evolved line 4, MIC of evolved line / MIC of ancestor) was 256. The “Relative MIC” value ([2]; KP-SEN (ATCC 10031), evolved line 5, MIC of evolved line / MIC of ancestor) was 256, the “Relative MIC” value ([2]; KP-SEN (ATCC 10031), evolved line 6, MIC of evolved line / MIC of ancestor) was 256 and the “Relative MIC” value ([2]; KP-SEN (ATCC 10031), evolved line 7, MIC of evolved line / MIC of ancestor) was 256. The “Relative MIC” value ([2]; KP-SEN (ATCC 10031), evolved line 8, MIC of evolved line / MIC of ancestor) was 256, the “Relative MIC” value ([2]; KP-SEN (ATCC 10031), evolved line 9, MIC of evolved line / MIC of ancestor) was 256 and the “Relative MIC” value ([2]; KP-SEN (ATCC 10031), evolved line 10, MIC of evolved line / MIC of ancestor) was 128. The “Relative MIC (log10)” value ([2]; evolved line 4 adapted to the named antibiotic) was 2.408, the “Relative MIC (log10)” value ([2]; evolved line 5 adapted to the named antibiotic) was 2.408 and the “Relative MIC (log10)” value ([2]; evolved line 6 adapted to the named antibiotic) was 2.408. For the same compound, the “Relative MIC (log10)” value [2, 3] was 2.408, the “Relative MIC (log10)” value [2, 4] was 2.408 and the “Relative MIC” value ([2]; Klebsiella pneumoniae ATCC 10031 (KP-SEN), evolved line 1) was 32. The “Relative MIC” value ([2]; Klebsiella pneumoniae ATCC 10031 (KP-SEN), evolved line 2) was 64, the “Relative MIC” value ([2]; Klebsiella pneumoniae ATCC 10031 (KP-SEN), evolved line 3) was 32 and the “Relative MIC” value ([2]; Klebsiella pneumoniae ATCC 10031 (KP-SEN), evolved line 4) was 256. The “Relative MIC” value ([2]; Klebsiella pneumoniae ATCC 10031 (KP-SEN), evolved line 5) was 256, the “Relative MIC” value ([2]; Klebsiella pneumoniae ATCC 10031 (KP-SEN), evolved line 6) was 256 and the “Relative MIC” value ([2]; Klebsiella pneumoniae ATCC 10031 (KP-SEN), evolved line 7) was 256. The “Relative MIC” value ([2]; Klebsiella pneumoniae ATCC 10031 (KP-SEN), evolved line 8) was 256, the “Relative MIC” value ([2]; Klebsiella pneumoniae ATCC 10031 (KP-SEN), evolved line 9) was 256 and the “Relative MIC” value ([2]; Klebsiella pneumoniae ATCC 10031 (KP-SEN), evolved line 10) was 128.
